The first test relates to WT-BaF3 cells. The test can be described thus: Cell antiproliferative activity assay (CCK-8), WT-BaF3 (broad-spectrum cytotoxicity). The class given is cell-based. As to conditions: 72 h; WT-BaF3 cells (IL-3 supplemented), CCK-8, 3 days incubation. In outline:
(§1)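 Growth inhibition over 3 days, with compound serially diluted 3-fold from a 10 µM top concentration. Cells seeded at 100,000 cells/mL; WT-BaF3 medium carried 10% WEHI supernatant as the IL-3 source. Viability read by CCK-8 OD450 after 2-4 h; IC50 from blank-subtracted curve fit.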
What is called IC50 is the concentration that gives 50% inhibition. In turn, `Cc1nn(CCO)cc1Nc1ncc2cc(-c3cccnc3)cc(C(C)C)c2n1` [I-21] returned an IC50 of over 2500 nM.

Molecule `Cc1nn(CCO)cc1Nc1ncc2cc(-c3nccnc3C)cc(C(C)C)c2n1` [I-81] displayed an IC50 of over 2500 nM.

For `Cc1nn(CCO)cc1Nc1ncc2cc(-c3nccnc3C)cc(C(F)(F)F)c2n1` [I-109], the IC50 was over 2500 nM.

As for `COc1c(P(C)(C)=O)ccc(Nc2ncc3cc(-c4nccnc4C)cc(C4CC4)c3n2)c1F` [II-69], the IC50 was over 2500 nM.

Turning to `Cc1c[nH]c(=O)cc1-c1cc(C(C)C)c2nc(Nc3cnn(C4CCN(C)CC4)c3C)ncc2c1` [III-14], the IC50 is 500 to 2500 nM.

`Cc1nn(C)cc1Nc1ncc2cc(-c3cn(C)nc3C)cc(C(C)C)c2n1` [III-87] yielded an IC50 of 100 to 500 nM.

`Cc1nn(C)cc1Nc1ncc2cc(-c3c[nH]nc3C)cc(C(C)C)c2n1` [III-88] gave an IC50 of 500 to 2500 nM.

Consider `Cc1ccnnc1-c1cc(C(C)C)c2nc(Nc3cn(C)nc3C)ncc2c1` [III-90], for which the IC50 lay within 100 to 500 nM.

A further test deals with T47D cells. The test can be described thus: Cell antiproliferative activity assay (CCK-8), T47D. The class given is cell-based. The note with it: Homo sapiens, 72 h, breast cancer cell line T47D, incubation for 3 days. Here is the method:
BRK-BaF3, WT-BaF3, WEHI cell line, and breast cancer cell line T47D were cultured using RPMI 1640 Basal medium or DMEM (Dulbecco's Modified Eagle Medium) (Shanghai Peiyuan Biotechnology, L220KJ), supplemented with 10% FBS (Gibco, REF 10099-141C) and 1% P/S (Shanghai Peiyuan Biotechnology, S110JV), in an incubator (Thermo 3020) at 37°C with 5% CO2. Cell viability was above 95%. Cells were passaged at a 3:1 ratio every 3-4 days. For WT-BaF3 cells, WEHI cells were first cultured, and their culture supernatant was filtered through a 0.22 µm filter. This supernatant was added at 10% to the regular culture medium to supplement IL-3 required for WT-BaF3 cell proliferation, which served as the culture medium for WT-BaF3. For testing, cells were first collected and counted, then prepared into a cell suspension at 100,000 cells/mL and plated at 100 µL per well. Drug concentrations started from 10 µM and were serially diluted 3:1. After incubation for 3 days, 20 µL of CCK-8 detection reagent (Targetmol C005) was added to each well. After incubation for 2-4 hours, OD450 was measured using a microplate reader (Varioskan LUX, Thermo Scientific). After subtracting the blank background, the curve was fitted and the IC50 was calculated using XLfit software.
In addition, the following table exemplarily lists the IC50 values of some compounds of the present invention against T47D cells.
Consider `COc1c(P(C)(C)=O)ccc(Nc2ncc3cc(-c4nccnc4C)cc(C4CC4)c3n2)c1F` [II-69], for which the IC50 was at most 500 nM.

Consider `Cc1c[nH]c(=O)cc1-c1cc(C(C)C)c2nc(Nc3cnn(C4CCN(C)CC4)c3C)ncc2c1` [III-14], for which the IC50 was in the range of 500 to 1000 nM.

Turning to `Cc1nn(C)cc1Nc1ncc2cc(-c3cn(C)nc3C)cc(C(C)C)c2n1` [III-87], the IC50 was at most 500 nM.

In the case of `Cc1nn(C)cc1Nc1ncc2cc(-c3c[nH]nc3C)cc(C(C)C)c2n1` [III-88], the IC50 fell in the range of 500 to 1000 nM.

The molecule `Cc1ccnnc1-c1cc(C(C)C)c2nc(Nc3cn(C)nc3C)ncc2c1` [III-90] came in with an IC50 of at most 500 nM.

The subject of another test is gastric cancer xenograft model GA6208. The test can be described thus: In vivo efficacy evaluation of gastric cancer PDX (GA6208). Details: species or system Balb/c nude mice. The note with it: I-21 100 mg/kg oral gavage twice daily, I-81 100/80 mg/kg oral gavage twice daily, cisplatin 3 mg/kg tail vein once weekly, in mm³ (unit assumed). From the text: Tumor tissue was collected from tumor-bearing mice of the gastric cancer xenograft model GA6208, cut into tumor pieces of 2-3 mm in diameter, and subcutaneously inoculated at the right front scapular region of Balb/c nude mice. When the mean tumor volume of the tumor-bearing mice reached approximately 150 mm^3 (100-200 mm^3), the mice were randomly divided into 4 groups of 8 mice each, and administered as follows: vehicle control (0.5% CMC-Na solution, oral gavage, twice daily), compound I-21 (100 mg/kg, oral gavage, twice daily), compound I-81 (100 mg/kg for the first 8 days, then 80 mg/kg for the subsequent 27 days, oral gavage, twice daily), and cisplatin (3 mg/kg, tail vein injection, once weekly), for a total of 35 days.
As to `Cc1nn(CCO)cc1Nc1ncc2cc(-c3cccnc3)cc(C(C)C)c2n1` [I-21], the “Day 35 tumor volume (mean ± SEM)” value was 782.88±71.02.

For the molecule `Cc1nn(CCO)cc1Nc1ncc2cc(-c3nccnc3C)cc(C(C)C)c2n1` [I-81], the “Day 35 tumor volume (mean ± SEM)” value was 595.03±30.63.

The same test, now with this note: tumor growth inhibition vs vehicle control, same dosing as tumor volume.
Take `Cc1nn(CCO)cc1Nc1ncc2cc(-c3cccnc3)cc(C(C)C)c2n1` [I-21]: the “Day 35 TGI (%)” value was found to be 44.59%.

As for `Cc1nn(CCO)cc1Nc1ncc2cc(-c3nccnc3C)cc(C(C)C)c2n1` [I-81], the “Day 35 TGI (%)” value was 57.89%.

The next test relates to BRK-BaF3 cells. The test can be described thus: Cell antiproliferative activity assay (CCK-8), BRK-BaF3. The class given is cell-based. The note with it: 72 h, CCK-8, 3 days incubation. In outline: as §1
Molecule `Cc1nn(CCO)cc1Nc1ncc2cc(-c3cccnc3)cc(C(C)C)c2n1` [I-21] yielded an IC50 of at most 20 nM.

Molecule `Cc1nn(CCO)cc1Nc1ncc2cc(-c3nccnc3C)cc(C(C)C)c2n1` [I-81] came in with an IC50 of at most 20 nM.

Take `Cc1nn(CCO)cc1Nc1ncc2cc(-c3nccnc3C)cc(C(F)(F)F)c2n1` [I-109]: the IC50 is at most 20 nM.

`COc1c(P(C)(C)=O)ccc(Nc2ncc3cc(-c4nccnc4C)cc(C4CC4)c3n2)c1F` [II-69] showed an IC50 of at most 20 nM.

`Cc1c[nH]c(=O)cc1-c1cc(C(C)C)c2nc(Nc3cnn(C4CCN(C)CC4)c3C)ncc2c1` [III-14] showed a concentration for half-maximal inhibition (IC50) of at most 20 nM.

The molecule `Cc1nn(C)cc1Nc1ncc2cc(-c3cn(C)nc3C)cc(C(C)C)c2n1` [III-87] gave an IC50 of at most 20 nM.

On to `Cc1nn(C)cc1Nc1ncc2cc(-c3c[nH]nc3C)cc(C(C)C)c2n1` [III-88], for which the IC50 is at most 20 nM.

`Cc1ccnnc1-c1cc(C(C)C)c2nc(Nc3cn(C)nc3C)ncc2c1` [III-90]: the IC50 is at most 20 nM.

In the next test the test system is GA6208. The test can be described thus: In vitro activity test of gastric cancer PDX (CellTiter-Glo), GA6208. The class given is cell-based. As to conditions: PDX GA6208, gastric cancer with high BRK expression, 168 hours. The method, then:
(§2) Patient-derived xenograft (PDX) models are methods in which tumor tissue from cancer patients is transplanted into severely immunodeficient mice for culture and passaging, and used to test compound activity. The compounds of the present invention were tested using three PDX samples (GA0119, GA6208, and GA6871, all being gastric cancers with high BRK expression, all cultured in DMEM).
(§3) Preparation of PDX model tumor cell suspension: PDX model animals were housed in the animal facility, and tumor growth was observed weekly. When the PDX model tumor grew to an appropriate size, the tumor was removed and minced using sterile surgical instruments. Collagenase B digestion solution was added, and digestion was performed at 37°C for approximately 2 hours. Undigested tissue was removed by passing through a cell strainer. The strainer was washed with PBS 3-5 times, and the cell pellet was washed with PBS 4 times. Tumor cells were resuspended in culture medium. ACK lysis buffer was used to remove red blood cells when necessary.
(§4) Cell plating: The above cell suspension was taken and counted. The cell suspension concentration was adjusted to 5.75 × 10^5 cells/mL by dilution with culture medium. 3.5 mL of the cell suspension and 6.5 mL of 1% methylcellulose solution were mixed thoroughly. 100 µL of the cell suspension was added to each well of a 96-well plate (including compound-treated cell plates and T0 control cell plates), followed by incubation overnight under conditions of 37°C, 5% CO2, and 95% humidity.
(§5) Day 0 cell viability reading: The CellTiter-Glo® reagent and T0 control cell culture plate were equilibrated at room temperature for 30 minutes. 100 µL of CellTiter-Glo® reagent was added to each well. The plate was shaken on an orbital shaker for 20 minutes to ensure complete cell lysis. The cell culture plate was then equilibrated at room temperature for 10 minutes, and the chemiluminescence signal was read using an EnVision plate reader.
(§6) Day 0 compound treatment: The test compound (stock concentration 10 mM) was taken out and equilibrated at room temperature for use. The compound treatment cell plate was taken out. The test compound solution was added to the corresponding wells. The highest concentration for each compound was 30 µM, with 3-fold serial dilutions, 9 concentration points, each concentration point in triplicate (DMSO concentration normalized). The final concentration of DMSO in each cell well was 0.3%. The dosed 96-well plate was then placed in an incubator at 37°C, 5% CO2, and 95% humidity for continued culture for 168 hours.
(§7) Day 7 cell viability reading: The CellTiter-Glo® reagent and cell culture plate were equilibrated at room temperature for 30 minutes. 100 µL of CellTiter-Glo® reagent was added to each well. The plate was shaken on an orbital shaker for 20 minutes to lyse the cells. The cell plate was then placed at room temperature for 10 minutes to stabilize the luminescence signal, and the luminescence value was read using an EnVision plate reader.
(§8) Data processing: Data were analyzed using GraphPad Prism 9.0 software. A nonlinear sigmoidal curve regression was used to fit the data and generate a dose-response curve, from which the IC50 value was calculated. Cell survival rate (%) = (Lumtest compound - Lummedium control) / (Lumcell control - Lummedium control) × 100%. Lum represents the luminescence value.
Background: Cellular ATP, detected with luciferase, serves as a proxy for viable cell number.
In the case of `Cc1nn(CCO)cc1Nc1ncc2cc(-c3cccnc3)cc(C(C)C)c2n1` [I-21], the IC50 is 620 nM.

`Cc1nn(CCO)cc1Nc1ncc2cc(-c3nccnc3C)cc(C(C)C)c2n1` [I-81] had an IC50 of 3920 nM.

Consider `Cc1nn(CCO)cc1Nc1ncc2cc(-c3nccnc3C)cc(C(F)(F)F)c2n1` [I-109], for which 8530 nM corresponded to half-maximal inhibition (IC50). This IC50 is about 2.2-fold higher than that of the molecule before.

The molecule `COc1c(P(C)(C)=O)ccc(Nc2ncc3cc(-c4nccnc4C)cc(C4CC4)c3n2)c1F` [II-69] registered an IC50 of 5630 nM.

The next test relates to GA6871. The test can be described thus: In vitro activity test of gastric cancer PDX (CellTiter-Glo), GA6871. The class given is cell-based. As to conditions: PDX GA6871, gastric cancer with high BRK expression, 168 hours. Here is the method:
as §2, §3, §4, §5, §6, §7, §8
In turn, `Cc1nn(CCO)cc1Nc1ncc2cc(-c3cccnc3)cc(C(C)C)c2n1` [I-21] registered an IC50 of 2130 nM.

As to `Cc1nn(CCO)cc1Nc1ncc2cc(-c3nccnc3C)cc(C(C)C)c2n1` [I-81], the midpoint of inhibition, the IC50, lay at 7130 nM.

On to `Cc1nn(CCO)cc1Nc1ncc2cc(-c3nccnc3C)cc(C(F)(F)F)c2n1` [I-109], for which the IC50 amounted to 17000 nM.

With `COc1c(P(C)(C)=O)ccc(Nc2ncc3cc(-c4nccnc4C)cc(C4CC4)c3n2)c1F` [II-69], the IC50 turned out to be 9280 nM.

The subject of a further test is GA0119. The test can be described thus: In vitro activity test of gastric cancer PDX (CellTiter-Glo), GA0119. As to conditions: PDX GA0119, gastric cancer with high BRK expression, 168 hours. The class given is cell-based. Here is the method: as §2, §3, §4, §5
Day 0 compound treatment: The test compound (stock concentration 10 mM) was taken out and equilibrated at room temperature for use. The compound treatment cell plate was taken out. The test compound solution was added to the corresponding wells. […]
Day 7 cell viability reading: The CellTiter-Glo® reagent and cell culture plate were equilibrated at room temperature for 30 minutes. […] The cell plate was then placed at room temperature for 10 minutes to stabilize the luminescence signal, and the luminescence value was read using an EnVision plate reader.
Data processing: Data were analyzed using GraphPad Prism 9.0 software. A nonlinear sigmoidal curve regression was used to fit the data and generate a dose-response curve, from which the IC50 value was calculated. […] Lum represents the luminescence value.
For `Cc1nn(CCO)cc1Nc1ncc2cc(-c3cccnc3)cc(C(C)C)c2n1` [I-21], it took 1140 nM to reach half-maximal inhibition (IC50).

As to `Cc1nn(CCO)cc1Nc1ncc2cc(-c3nccnc3C)cc(C(C)C)c2n1` [I-81], the IC50 stood at 4540 nM.

`COc1c(P(C)(C)=O)ccc(Nc2ncc3cc(-c4nccnc4C)cc(C4CC4)c3n2)c1F` [II-69] yielded an IC50 of 8010 nM. This IC50 is about 1.8-fold higher than that of the molecule before.

The values are drawn from patent publication EP4803513A1, “SUBSTITUTED QUINAZOLINE COMPOUND, PREPARATION METHOD THEREFOR, PHARMACEUTICAL COMBINATION THEREOF, AND USE THEREOF” (Hongyun Biotech Co., Ltd., priority 2023, dated 2025).
